Data on 1 molecule can be found in US20150368616A1, “METHODS FOR INDUCTION OF CELL FATES FROM PLURIPOTENT CELLS” (THE CLEVELAND CLINIC FOUNDATION, priority 2013, published 2015).

One data set relates to Ngn3 protein. The experiment in a line: Ngn3 protein stability and half-life in HepG2 cells, cycloheximide time course, Western blot. It is filed as cell-based. Conditions: HepG2 cells exposed to MG132, CHX time course. The text has this:
I. Protein stability and half-life assessment of Ngn3 in HepG2 cells. HepG2 cells were transfected with pTRE2-Ngn3 and pCMV-rtTA, treated with Doxycycline for 24 hr, and on the subsequent day pre-exposed to the proteasomal inhibitor MG132 for 5 hr. At time t=0, protein synthesis was inhibited by cycloheximide (CHX). Western blot using anti-Ngn3 antibodies are shown; b-actin served as a control, and remains stable. MG132 treatment leads to Ngn3 protein accumulation at t=0, and strongly stabilizes the protein, which rapidly decays in non-treated cells. J. Experiment conducted similarly as in I, but CMV-driven versions of Notch1 and Notch2 intracellular domains (N1ICD, N2ICD respectively) (left), or dominant-negative mastermind-like1 (DN-MAML1) were co-transfected with pTRE2-Ngn3. The left-most blot is overexposed to reveal the lower level of accumulated Ngn3 protein in presence of N1ICD, N2ICD, and the loss of Ngn3 upon CHX treatment. The analysis was done 1 hr post CHX treatment. […] K. Mouse pancreatic E14.5 explants were subjected to short-term treatment of CHX (1 hr) and MG132 (5 hr pre, and post-culture) as indicated. Total protein was isolated and subjected to anti-Ngn3 Western blotting. Levels of Ngn3 increase in presence of MG132, and decrease in response to CHX. Ngn3 protein levels increase correspondingly in presence of DAPT, a condition where the protein remains stable (CHX+DAPT lane). L. Stability measurements of Ngn3 in the presence of various cellular regulatory proteins. The experiment was conducted as in I and J. Decay scans (right) provide a measure of the decay rate of Ngn3. In all cases, the t=0 Ngn3 levels prior to CHX treatment is paralleled by the relative half-life of the protein. Destabilizing conditions include N1ICD, N2ICD, and Hes1. Stabilizing conditions include DN-MAML1 and DAPT-treatment. […] Hes1 is able to destabilize Ngn3 in the presence of DN-MAML1.
While Hes1 is known to directly repress Ngn3 expression, this would be an insufficient explanation for the observed results in which Ngn3 was driven by a Pdx1-tTA;tetO governed system. […] As destabilization of other bHLH factors, including NGN, and hASH1 has been observed, which has also implicated Notch, we then tested if a similar mechanism might operate in pancreas. As a means to mechanistically address this question, we first determined if Ngn3 protein half-life was regulated by proteasomal activity. Using three different heterologous cell lines (HepG2, Hek293, and CHO) conditionally expressing Ngn3, we observed a rapid turnover of Ngn3 protein after cycloheximide (CHX) addition; conditions where the control protein, beta-Actin, remained stable (FIG. 34I and data not shown). […]

The test system of data set [1] is forward differentiating hES culture. The experiment in a line: Two stage protocol: Pan-CM 8 days then second stage medium with MG132, DAPT, forskolin, sodium propionate; transcript analysis. It is filed as cell-based, human. Conditions: 8 days Pan-CM then second stage medium. As for the experimental part:
As a means to optimize the differentiation of insulin producing cells a two stage protocol was used in which pluripotent cultures were incubated in the presence of Pan-CM for 8 days as a means of generating pancreatic precursors cellular population. The medium these cultures were incubated in were subsequently changed to a medium designed to enhance differentiation of a pancreatic precursor towards a beta-cell terminal fate. All second stage experiments were performed in a medium composed of DMEM/F12 containing 12 mM Glucose supplemented with 1% B27, 1% Pyruvate, 1 uM Alk5 Inh II, 500 ng/ml Noggin and 0.5 uM (1,25 OH2)-Vit D3.
Among the compounds assayed for the ability to increase insulin production in a forward differentiating culture was the proteosomal inhibitor MG132 which we used in the previous example to stabilize Ngn3 protein. We also included the gamma secretase inhibitor DAPT, which was shown in the previous example to greatly increase beta-cell formation in the developing embryonic pancreatic explant study. We also included the short fatty acid salt sodium propionate, which acts as an agonist of short-chain fatty acid receptors. We also included the adenylyl cyclase activator forskolin. We also included the nuclear hormone receptor agonist 1,25 (OH)2)-Vit D3, which binds to, and activates the VDR protein. We also used intermediate concentrations of glucose, shown by others to increase formation of insulin producing cells from pluripotent derivatives. These compounds were used individually or in combination (as outlined in FIG. 37 panel A) to increase insulin-producing endocrine cell formation in a short term Pan-CM treated forward differentiating hES culture system.

The test system of a further data set is endogenous Ngn3. The experiment in a line: Mouse pancreatic E14.5 explants treated with CHX, MG132, DAPT; anti-Ngn3 Western blotting. It is filed as cell-based. The note with it: E14.5 mouse pancreatic explants, MG132 5 hr. An excerpt: I. Protein stability and half-life assessment of Ngn3 in HepG2 cells. HepG2 cells were transfected with pTRE2-Ngn3 and pCMV-rtTA, treated with Doxycycline for 24 hr, and on the subsequent day pre-exposed to the proteasomal inhibitor MG132 for 5 hr. At time t=0, protein synthesis was inhibited by cycloheximide (CHX). Western blot using anti-Ngn3 antibodies are shown; b-actin served as a control, and remains stable. MG132 treatment leads to Ngn3 protein accumulation at t=0, and strongly stabilizes the protein, which rapidly decays in non-treated cells. J. Experiment conducted similarly as in I, but CMV-driven versions of Notch1 and Notch2 intracellular domains (N1ICD, N2ICD respectively) (left), or dominant-negative mastermind-like1 (DN-MAML1) were co-transfected with pTRE2-Ngn3. The left-most blot is overexposed to reveal the lower level of accumulated Ngn3 protein in presence of N1ICD, N2ICD, and the loss of Ngn3 upon CHX treatment. The analysis was done 1 hr post CHX treatment. […]
While Hes1 is known to directly repress Ngn3 expression, this would be an insufficient explanation for the observed results in which Ngn3 was driven by a Pdx1-tTA;tetO governed system. […] As a means to mechanistically address this question, we first determined if Ngn3 protein half-life was regulated by proteasomal activity. […]

The subject of data set [2] is Forward differentiating hES cultures. The data set is described as follows: Pan-CM two weeks then maturation medium with daily MG132 pulse, transcript analysis. It is filed as cell-based, human. As for the experimental part: To successfully differentiate an insulin producing cell a two stage approach was developed. Schematically represented in panel A, pluripotent cultures were treated with Pan-CM for two weeks followed by a switch to a maturation medium (abbreviated MM within panel B) composed of DMEM/F12 with 12 mM glucose supplemented with 5 uM DAPT, 0.5 uM Vit D3, 1% B27, 1 uM Alk 5 Inhibitor and 1 mM Sodium Propionate. In addition cultures were treated with the proteasome inhibitor MG132 at 10 uM for a 4 hour pulse daily for the length of the experiment. We have previously shown that MG132 mediated inhibition of protein degradation promotes sustained Ngn3 signaling resulting in increased endocrine differentiation. […] Substantial increases in several of the endocrine specific genes are observed.
Forward differentiating hES cultures were incubated for two weeks in the presence of Pan-CM at which time culture conditions were changed to a defined maturation medium in addition to being treated daily with MG132. Control cultures remained within Pan-CM for the entire duration of the experiment. […] Transcript levels of Slc30A8, a gene associated with the transport of zinc during the processing of insulin, were increased ˜200 fold when forward differentiating cultures were exposed to MG132. […] It is important to note that while the absolute Glucagon transcript level fold increase was greater than that of insulin, when comparing the effects of forward differentiating cultures treated with Mg132 as to those which were solely treated with Pan-CM there was an ˜5 fold greater increase in relative Glucagon transcript levels as compared to an ˜24 fold greater increase in Insulin transcript levels. […] A similar low increase was also noted for the intestinal specific transcripts Cdx2 and Gucy2c genes, with only an ˜15 and ˜30 fold increase over hES transcript levels.
Also it is important to note that while all of the transcripts assayed throughout this series of experiments were increased in the cultures treated with MG132 the increase in pancreas specific transcripts was always far greater than the increases observed in non-pancreas specific transcripts (i.e., transcripts representative of the liver and intestines).

The mark [3] stands for this setting: two weeks Pan-CM then maturation medium, MG132 daily.

Each structure is given as a SMILES string. Residues, ends and D or L forms follow the SMILES beside them. *: point of attachment. Cbz = O=C(OCc1ccccc1)*

In the case of `CC(C)C[C@@H](C=O)NC(=O)[C@H](CC(C)C)NC(=O)[C@H](CC(C)C)NC(=O)OCc1ccccc1` [MG132, benzyl (S)-4-methyl-1-((S)-4-methyl-1-((S)-4-methyl-1-oxopentan-2-ylamino)-1-oxopentan-2-ylamino)-1-oxopentan-2-ylcarbamate] (Cbz-Leu-Leu-Leu-aldehyde), the “half-life of Ngn3 (T1/2)” value in the data set on Ngn3 protein was over 3 h. Besides, in data set [1], the Glucagon transcript levels result is “remaining approximately the same as controls”, the Hnf6 transcript increase is listed as about 90 fold, the “Insulin transcript levels increase over controls” value is about 80 fold and the Nkx6.1 transcript increase was about 12.5 fold. The Pdx1 transcript increase in data set [1] is reported as about 40 fold. The “loss of endogenous Ngn3 following exposure to CHX” value in the data set with endogenous Ngn3 is given as “abrogated”. In data set [2], the AFP transcript increase is recorded as about 85 fold, the Albumin transcript increase is listed as about 50 fold, the “Cdx2 increase over hES transcript levels” value is reported as about 15 fold and the “Glucagon transcript increase compared to cultures solely treated with Pan-CM” value is about 5 fold. In data set [2], the “Gucy2c increase over hES transcript levels” value is reported as about 30 fold and the “Insulin transcript increase compared to cultures solely treated with Pan-CM” value was about 24 fold. Further, the “effect of long incubations on the culture” value in data set [2] (forward differentiating culture) was “overall detrimental effect on the culture”. In addition, in data set [2] (setting [3]), the “Glucagon absolute relative level over hES levels” value is about 2000 fold, the “Insulin absolute relative level over hES levels” value was about 600 fold, the “Mafa relative increase over control conditions” value was about 200 fold and the “Pax4 relative increase over control conditions” value is on record as about 300 fold. Besides, in data set [2] (setting [3]), the “Slc30A8 transcript levels increase” value is reported as about 200 fold.
